Results on nine molecules are retold here after article PMC7867015, “New Antiproliferative Triflavanone from Thymelaea hirsuta—Isolation, Structure Elucidation and Molecular Docking Studies” (Molecules, 2021).

What all share (format): cell-based
One data set deals with BAX. Briefly: ELISA assay for apoptotic marker BAX in MCF-7 cells. As to conditions: 4.26 μM, 48 h, control 43.6 pg/mL. From the text:
(§1) To further investigate the apoptotic pathway of compound 1 in both untreated and treated MCF-7 cells, we investigated the enzymatic assays for apoptotic markers BAX (EIA-4487, DRG International®, Springfield, NJ, USA) and caspase-9 (EIA-4860, DRG International®, USA) as proapoptotic genes and BCL2 (Cat. No. 99-0042, Zymed®, CA, USA) as the anti-apoptotic gene, following the manufacturer’s instructions.

For data set [1], the system named is MCF-7 cells. Description: SRB cytotoxicity assay, MCF-7 cells. As to conditions: Homo sapiens, MCF7, 48 h, read-out: IC50 against MCF-7 cells. The procedure:
(§2) The cell lines used in this study were purchased from the National Cancer Institute, Cairo, Egypt and maintained in Dulbecco’s Modified Eagle Medium/F-12 (DMEM⁄F12, Sigma-Aldrich, USA), supplemented with 2 mM L-glutamine (Lonza, Belgium) and 10% fetal bovine serum (FBS, Sigma-Aldrich, MO, USA), 1% penicillin-streptomycin (Lonza, Belgium). All cells were cultured following routine tissue culture work, and treated with serial concentrations of the compounds for 48 h. Absorbance was subsequently measured (at 570 nm) using ELISA microplate reader (BIO-RAD, model iMark, Japan). The viability was calculated relative to a control and the IC50 values were determined using the non-linear regression curve fit, as previously reported in [44]
(§3) The cytotoxic activities of the isolated compounds against HepG2, VERO E6, MCF-7 and HCT-116 cells were tested using the sulforhodamine-B (SRB) assay and the results are represented in figure e and Table 2.
On the technique in general: In SRB staining, fixed cells bind dye roughly in proportion to their protein.

The nature of data set [2]: SRB cytotoxicity assay, HepG2 cells. The note with it: human, read-out: In vitro cytotoxic effect IC50, HepG2. The procedure: as §2, §3
The test system of a further data set is caspase-9. Description: ELISA assay for apoptotic marker caspase-9 in MCF-7 cells. The note with it: 4.26 μM, 48 h, control 5.16 pg/mL.
Text: as §1
A general note: ELISA stands for enzyme-linked immunosorbent assay.

Data set [3] relates to MCF-7 cells. Description: Annexin V/PI staining, flow cytometry (apoptosis). The note with it: 48 h. The protocol:
(§4) Apoptosis rate in cells was quantified using annexin V-FITC (BD Pharmingen, San Diego, CA, USA). MCF-7 cells were seeded into 6-well culture plates (3–5 × 10^5 cells/well) and incubated overnight. The cells were then treated with compound 1 for 48 h. Next, media supernatants and cells were collected and rinsed with ice-cold PBS. The next step was suspending the cells in 100 µL of annexin binding buffer solution 25 mM CaCl2, 1.4 M NaCl, and 0.1 M Hepes/NaOH, pH 7.4 and incubation with annexin V-FITC solution (1:100) and propidium iodide (PI) at a concentration of 10 µg/mL in the dark for 30 min. Stained cells were then acquired by a Cytoflex FACS machine. Data were analyzed using cytExpert software v.2.3.
Background: Flow cytometry measures light scatter and fluorescence of single cells or particles in a stream.

A further data set relates to HCT-116 cells. Description: SRB cytotoxicity assay, HCT-116 cells. As to conditions: Homo sapiens, 48 h, read-out: IC50 against HCT-116 cells. The protocol:
as §2, §3

Data set [4] can be described thus: SRB cytotoxicity assay, Vero normal cells. As to conditions: African green monkey, Vero E6 cells (normal cells), read-out: In vitro cytotoxic effect IC50, Vero. The protocol: as §2, §3
Another data set relates to Vero cells. Description: SRB cytotoxicity assay, Vero normal cells. The note with it: 48 h, read-out: In vitro cytotoxic effect IC50, Vero. The procedure: as §2, §3
The test system of another data set is BCL2. Briefly: ELISA assay for anti-apoptotic marker BCL2 in MCF-7 cells. The note with it: 4.26 μM, 48 h, control 7.59 ng/mL.
Text: as §1

Data set [5] deals with MCF-7 cells. Briefly: DNA content flow cytometry cell cycle analysis. The note with it: 4.26 μM, 48 h. The procedure:
Cell cycle analysis is an important test that determines the percentages of the cell population that are in each cell phase.. In this studyMCF-7 cancer cells were treated with compound 1, and then subjected to DNA flow cytometry to determine the stage where cell proliferation was arrested in the cell cycle.
as §4

`O=C1c2c(O)cc(O)cc2OC(c2ccc(O)cc2)C1Oc1ccc(C2Oc3cc(O)cc(O)c3C(=O)C2C2C(=O)c3c(O)cc(O)cc3OC2c2ccc(O)cc2)cc1` (centres unmarked) [Compound 1, 2-(4-((5,7-dihydroxy-2-(4-hydroxyphenyl)-4-oxochroman-3-yl)oxy)phenyl)-5,5′,7,7′-tetrahydroxy-2′-(4 hydroxyphenyl)-[3,3′-bichromane]-4,4′-dione] yielded a BAX level in the data set with BAX of 362 pg/mL. The IC50 was 4.26 µM in the data set on MCF-7 cells [1], 9.6 µM in the data set with HCT-116 cells and 56.6 µM in the data set with Vero cells. Besides, the values for the IC50 at 48 h in data set [2] and in data set [4] were 8.6 µM and over 50 µM, respectively. Besides, in the data set on caspase-9, the caspase-9 level worked out at 21.14 pg/mL. Further, the “apoptotic cell death increase” value in the data set on MCF-7 cells [3] (MCF-7 cells treated at IC50 = 4.26 μM, versus untreated control) worked out at 14.97 fold. Further, the “Apoptosis Late” value in the data set on MCF-7 cells [3] (MCF-7 cells, 4.26 μM, control 0.23%) came to 22.52%. Besides, the “Apoptosis Early” value in the data set with MCF-7 cells [3] (MCF-7 cells, 4.26 μM, control 0.61%) was found to be 2.44%. Further, the “Apoptosis Total (apoptosis ratio)” value with MCF-7 cells [3] (MCF-7 cells, 4.26 μM, control 2.71%) was 40.57%. Further, the BCL2 level with BCL2 amounted to 2.85 ng/mL. In the data set on MCF-7 cells [5] (control 2.71%), this molecule showed a Pre-G1 cell population of 40.57%. The “change in cell population in G0/G1, S or G2/M phase” value in the data set on MCF-7 cells [5] (versus control) is “no significant change”.
For `COc1cc2cc(Oc3ccc4ccc(=O)oc4c3)c(=O)oc2cc1OC` [Compound 2, daphnoretin methyl ether], the results for the IC50 in the data set with MCF-7 cells [1] and in the data set on HCT-116 cells were 66.1 µM and 101 µM, respectively. Further, the IC50 at 48 h in data set [2] was determined as 12.3 µM.
On to `COc1cc2oc(=O)c(Oc3ccc4ccc(=O)oc4c3)cc2cc1O` [Compound 3, rutamontine], for which the IC50 at 48 h in data set [2] was 29.8 µM; in data set [4], over 142 µM.
For the molecule `COc1cc2cc(O)c(=O)oc2cc1Oc1ccc2ccc(=O)oc2c1` [Compound 4, neodaphnoretin], the IC50 at 48 h in [2] is 27.2 µM; in data set [4], 124 µM.
Take `COc1cc2cc(Oc3ccc4ccc(=O)oc4c3)c(=O)oc2cc1OC(C)=O` [Compound 5, acetyldaphnoretin]: the IC50 with MCF-7 cells [1] is 46.4 µM; in the data set with HCT-116 cells, 24.4 µM. Also, the IC50 at 48 h in data set [2] is 9.4 µM.
With `O=c1ccc2ccc(Oc3cc4cc(O)c(O)cc4oc3=O)cc2o1` [Compound 6, edgeworthin], the figures for the IC50 at 48 h in data set [2] and in [4] were 32.5 µM and over 148 µM, respectively.
For `O=C(C=Cc1ccc(O)cc1)OCC1OC(Oc2c(-c3ccc(O)cc3)oc3cc(O)cc(O)c3c2=O)C(O)C(O)C1O` (stereo not drawn) [Compound 8, trans-tiliroside], the figures for the half-maximal inhibitory concentration (IC50) at 48 h in [2] and in data set [4] were 15.1 µM and 50.5 µM, respectively.
Consider `O=C(O)c1ccc(O)cc1` [Compound 9, p-hydroxy benzoic acid], for which the values for the IC50 at 48 h in [2] and in [4] were 32.6 µM and 203 µM, respectively.
For `COc1cccc2c1C(=O)c1c(O)c3c(c(O)c1C2=O)C[C@@](O)(C(=O)CO)C[C@@H]3O[C@H]1C[C@H](N)[C@H](O)[C@H](C)O1` [Doxo, Doxorubicin, reference compound], in that order: 7.7 µM and 45.8 µM.

As usually defined, the IC50 is the concentration that gives 50% inhibition.
